The values below come from patent US11339161B2, “Triazolo pyridines as modulators of gamma-secretase” (Boehringer Ingelheim International GmbH, priority 2017, dated 2022).

One test has as its system Aβ42 production. Kind of test: Inhibition of Aβ42 production in H4 neuroglioma cells stably expressing human APP695 (MSD electrochemiluminescence). The note with it: H4 neuroglioma cells expressing human APP695, 22 hours incubation; Table 4a. The test is classed as cell-based. The procedure: Cells were plated out to near confluency. The compounds to be tested were received as 10 mM stocks in 100% DMSO. A dilution series was initially generated in 100% DMSO and then diluted 200-fold in cell culture media such that the tested concentration range was 30 μM to 0.1 nM and the final DMSO concentration was 0.5%. The diluted compounds were incubated with the cells for 22 hours in an incubator at 37° C. and 5% CO2. Aβ42 levels were measured post-incubation from the supernatant of the cells using an Aβ42 specific electrochemiluminescence assay provided by Meso Scale Discovery (Catalog #L21CA-1). The measurement of Aβ42 levels were performed according to the manufacturer's protocol.

A further test concerns the target FLT4 (VEGFR3) (Homo sapiens, UniProt P35916). Description: Z'-LYTE SelectScreen biochemical kinase assay FLT4 (VEGFR3). From the text:
(§1) Thermo Fisher Scientific SelectScreen™ Biochemical Kinase Profiling Service Z′-LYTE™ Screening Protocol and Assay Conditions Assay Theory
(§2) The […] biochemical assay employs a fluorescence-based, coupled-enzyme format and is based on the differential sensitivity of phosphorylated and non-phosphorylated peptides to proteolytic cleavage. The peptide substrate is labeled with two fluorophores—one at each end—that make up a FRET pair. In the primary reaction, the kinase transfers the gamma-phosphate of ATP to a single tyrosine, serine or threonine residue in a synthetic FRET-peptide. In the secondary reaction, a site-specific protease recognizes and cleaves non-phosphorylated FRET-peptides. Phosphorylation of FRET-peptides suppresses cleavage by the Development Reagent. Cleavage disrupts FRET between the donor (i.e., coumarin) and acceptor (i.e., fluorescein) fluorophores on the FRET-peptide, whereas uncleaved, phosphorylated FRET-peptides maintain FRET. A ratiometric method, which calculates the ratio (Emission Ratio=Coumarin emission (445 nm)/Fluorescein emission (520 nm)) of donor emission to acceptor emission after excitation of the donor fluorophore at 400 nm, is used to quantitate reaction progress, as shown in the equation below. A significant benefit of this ratiometric method for quantitating reaction progress is the elimination of well-to-well variations in FRET-peptide concentration and signal intensities. As a result, the assay yields very high Z′-factor values (>0.7) at a low percent phosphorylation. Both cleaved and uncleaved FRET-peptides contribute to the fluorescence signals and therefore to the Emission Ratio. The extent of phosphorylation of the FRET-peptide can be calculated from the Emission Ratio. The Emission Ratio will remain low if the FRET-peptide is phosphorylated (i.e., no kinase inhibition) and will be high if the FRET-peptide is non-phosphorylated (i.e., kinase inhibition).
(§3) The Test Compounds are screened in 1% DMSO (final) in the well. For 10 point titrations, 3-fold serial dilutions are conducted from the starting concentration of the customer's choosing.
(§4) All Peptide/Kinase Mixtures are diluted to a 2× working concentration in the appropriate Kinase Buffer (see section Kinase Specific Assay Conditions for a complete description).
(§5) All ATP Solutions are diluted to a 4× working concentration in Kinase Buffer (50 mM HEPES pH 7.5, 0.01% BRIJ-35, 10 mM MgCl2, 1 mM EGTA). ATP Km apparent is previously determined using a Z″-LYTE assay.
(§6) The Development Reagent is diluted in Development Buffer (see section Kinase-Specific Assay Conditions—Direct and Cascade for a complete description).
(§7) Bar-coded Corning, low volume NBS, black 384-well plate (Corning Cat. #4514) • 1. 100 nL—100× Test Compound in 100% DMSO • 2. 2.4 μL—Kinase buffer • 3. 5 μL—2× Peptide/Kinase Mixture • 4. 2.5 μL—4×ATP Solution • 5. 30—second plate shake • 6. 60—minute Kinase Reaction incubation at room temperature • 7. 5 μL—Development Reagent Solution • 8. 30—second plate shake • 9. 60—minute Development Reaction incubation at room temperature • 10. Read on fluorescence plate reader and analyze the data Z′-LYTE Assay Controls
(§8) SelectScreen Kinase Profiling Service uses XLfit from IDBS. The dose response curve is curve fit to model number 205 (sigmoidal dose-response model).
The 2×FLT4 (VEGFR3)/Tyr 04 mixture is prepared in 50 mM HEPES pH 7.5, 0.01% BRIJ-35, 10 mM MgCl2, 4 mM MnCl2, 1 mM EGTA, 2 mM DTT. The final 10 μL Kinase Reaction consists of 2-10.5 ng FLT4 (VEGFR3) and 2 μM Tyr 04 in 50 mM HEPES pH 7.5, 0.01% BRIJ-35, 10 mM MgCl2, 2 mM MnCl2, 1 mM EGTA, 1 mM DTT. After the 1 hour Kinase Reaction incubation, 5 μL of a 1:64 dilution of Development Reagent B is added.

In the next test the target is MAP4K4 (HGK) (Homo sapiens, UniProt O95819). Description: Z'-LYTE SelectScreen biochemical kinase assay MAP4K4 (HGK).
Source text: as §1, §2, §3, §4, §5, §6, §7, §8
The 2×MAP4K4 (HGK)/Ser/Thr 07 mixture is prepared in 50 mM HEPES pH 7.5, 0.01% BRIJ-35, 10 mM MgCl2, 1 mM EGTA. The final 10 μL Kinase Reaction consists of 0.36-1.82 ng MAP4K4 (HGK) and 2 μM Ser/Thr 07 in 50 mM HEPES pH 7.5, 0.01% BRIJ-35, 10 mM MgCl2, 1 mM EGTA. After the 1 hour Kinase Reaction incubation, 5 μL of a 1:45000 dilution of Development Reagent A is added.

The target in another test is RET (Homo sapiens, UniProt P07949). Description: Z'-LYTE SelectScreen biochemical kinase assay RET.
Source text: as §1, §2, §3, §4, §5, §6, §7, §8
The 2×RET/Tyr 02 mixture is prepared in 50 mM HEPES pH 7.5, 0.01% BRIJ-35, 10 mM MgCl2, 1 mM EGTA. The final 10 μL Kinase Reaction consists of 0.49-3.64 ng RET and 2 μM Tyr 02 in 50 mM HEPES pH 7.5, 0.01% BRIJ-35, 10 mM MgCl2, 1 mM EGTA. After the 1 hour Kinase Reaction incubation, 5 μL of a 1:128 dilution of Development Reagent A is added.

Setting [1] is: 10 μmolar compound concentration, ATP at Km app, read-out: FLT4 (VEGFR3) inhibition.
Where [2] appears, read: read-out: % Inhibition mean FLT4 (VEGFR3).
Setting [3] is: 10 μmolar compound concentration, ATP at Km app, read-out: MAP4K4 (HGK) inhibition.
[4] abbreviates: read-out: % Inhibition mean MAP4K4 (HGK).
[5] abbreviates: 10 μmolar compound concentration, ATP at Km app, read-out: RET inhibition.
Where [6] appears, read: read-out: % Inhibition mean RET.

As usually defined, the IC50 is the concentration that gives 50% inhibition. One may read the inhibition as the change of the read-out against control, counted positive when it falls.

Molecules are shown by their SMILES. Like-named read-outs stand apart in the source and are kept apart here.

RET, sequence (P07949 29-1114): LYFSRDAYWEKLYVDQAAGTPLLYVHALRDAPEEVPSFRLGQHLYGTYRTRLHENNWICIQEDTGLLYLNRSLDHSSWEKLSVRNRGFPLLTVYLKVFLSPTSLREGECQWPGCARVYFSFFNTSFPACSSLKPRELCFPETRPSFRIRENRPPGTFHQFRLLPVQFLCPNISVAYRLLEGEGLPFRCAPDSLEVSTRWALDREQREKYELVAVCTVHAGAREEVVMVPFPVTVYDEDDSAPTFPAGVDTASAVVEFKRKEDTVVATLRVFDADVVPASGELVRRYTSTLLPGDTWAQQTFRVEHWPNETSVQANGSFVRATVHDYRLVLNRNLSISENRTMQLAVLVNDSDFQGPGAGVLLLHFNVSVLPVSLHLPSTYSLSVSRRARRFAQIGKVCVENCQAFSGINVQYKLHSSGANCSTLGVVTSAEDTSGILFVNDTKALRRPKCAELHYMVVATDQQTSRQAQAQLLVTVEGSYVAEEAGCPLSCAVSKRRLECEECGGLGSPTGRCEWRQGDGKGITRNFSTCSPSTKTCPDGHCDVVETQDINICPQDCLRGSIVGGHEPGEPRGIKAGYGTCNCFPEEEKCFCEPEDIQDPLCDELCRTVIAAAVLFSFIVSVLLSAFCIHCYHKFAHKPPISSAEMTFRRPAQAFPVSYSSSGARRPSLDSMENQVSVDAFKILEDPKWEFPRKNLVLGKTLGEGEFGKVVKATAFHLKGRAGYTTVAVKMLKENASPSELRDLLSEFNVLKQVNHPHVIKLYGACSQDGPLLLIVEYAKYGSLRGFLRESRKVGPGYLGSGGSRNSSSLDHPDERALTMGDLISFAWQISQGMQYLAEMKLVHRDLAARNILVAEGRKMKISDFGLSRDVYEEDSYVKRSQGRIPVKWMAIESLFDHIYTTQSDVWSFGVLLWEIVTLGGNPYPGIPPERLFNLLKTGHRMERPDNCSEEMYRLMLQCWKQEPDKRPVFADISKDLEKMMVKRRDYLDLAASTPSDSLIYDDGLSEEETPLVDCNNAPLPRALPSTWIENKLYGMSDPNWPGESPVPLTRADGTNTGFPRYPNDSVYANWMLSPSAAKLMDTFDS
FLT4 (VEGFR3), sequence (P35916 25-1363): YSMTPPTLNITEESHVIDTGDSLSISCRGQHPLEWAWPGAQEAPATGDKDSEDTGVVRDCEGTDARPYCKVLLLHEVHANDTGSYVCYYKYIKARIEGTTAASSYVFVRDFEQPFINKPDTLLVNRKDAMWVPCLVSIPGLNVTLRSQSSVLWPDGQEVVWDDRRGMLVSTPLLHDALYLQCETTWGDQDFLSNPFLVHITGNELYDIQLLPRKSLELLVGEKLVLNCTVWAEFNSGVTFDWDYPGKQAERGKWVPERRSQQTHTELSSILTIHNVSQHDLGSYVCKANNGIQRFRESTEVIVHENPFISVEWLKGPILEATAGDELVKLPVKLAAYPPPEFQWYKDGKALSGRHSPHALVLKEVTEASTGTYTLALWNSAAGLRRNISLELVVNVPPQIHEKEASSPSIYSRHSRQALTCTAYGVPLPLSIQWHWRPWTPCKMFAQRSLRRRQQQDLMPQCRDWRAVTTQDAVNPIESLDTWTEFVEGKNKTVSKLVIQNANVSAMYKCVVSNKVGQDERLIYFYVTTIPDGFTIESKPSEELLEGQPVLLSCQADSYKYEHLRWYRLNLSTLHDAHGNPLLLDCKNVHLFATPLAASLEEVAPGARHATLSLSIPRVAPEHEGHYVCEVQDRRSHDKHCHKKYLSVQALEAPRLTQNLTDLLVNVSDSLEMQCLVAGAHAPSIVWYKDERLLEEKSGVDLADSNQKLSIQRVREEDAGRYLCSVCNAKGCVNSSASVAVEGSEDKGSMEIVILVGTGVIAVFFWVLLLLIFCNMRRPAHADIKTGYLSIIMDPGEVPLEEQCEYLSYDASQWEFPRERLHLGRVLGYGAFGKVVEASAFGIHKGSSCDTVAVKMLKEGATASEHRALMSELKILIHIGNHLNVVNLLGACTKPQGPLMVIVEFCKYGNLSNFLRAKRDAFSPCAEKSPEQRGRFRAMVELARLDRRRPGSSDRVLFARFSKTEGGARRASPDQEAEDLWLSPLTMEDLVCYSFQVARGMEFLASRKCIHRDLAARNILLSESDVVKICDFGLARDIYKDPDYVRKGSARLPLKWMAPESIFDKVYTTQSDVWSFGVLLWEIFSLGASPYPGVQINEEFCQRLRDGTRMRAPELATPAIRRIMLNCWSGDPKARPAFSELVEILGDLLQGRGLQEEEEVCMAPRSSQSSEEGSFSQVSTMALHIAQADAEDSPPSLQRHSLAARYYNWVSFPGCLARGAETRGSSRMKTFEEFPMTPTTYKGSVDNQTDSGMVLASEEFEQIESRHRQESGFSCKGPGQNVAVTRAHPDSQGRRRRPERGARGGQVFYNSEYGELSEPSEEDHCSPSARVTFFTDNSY
MAP4K4 (HGK), sequence (O95819 whole entry): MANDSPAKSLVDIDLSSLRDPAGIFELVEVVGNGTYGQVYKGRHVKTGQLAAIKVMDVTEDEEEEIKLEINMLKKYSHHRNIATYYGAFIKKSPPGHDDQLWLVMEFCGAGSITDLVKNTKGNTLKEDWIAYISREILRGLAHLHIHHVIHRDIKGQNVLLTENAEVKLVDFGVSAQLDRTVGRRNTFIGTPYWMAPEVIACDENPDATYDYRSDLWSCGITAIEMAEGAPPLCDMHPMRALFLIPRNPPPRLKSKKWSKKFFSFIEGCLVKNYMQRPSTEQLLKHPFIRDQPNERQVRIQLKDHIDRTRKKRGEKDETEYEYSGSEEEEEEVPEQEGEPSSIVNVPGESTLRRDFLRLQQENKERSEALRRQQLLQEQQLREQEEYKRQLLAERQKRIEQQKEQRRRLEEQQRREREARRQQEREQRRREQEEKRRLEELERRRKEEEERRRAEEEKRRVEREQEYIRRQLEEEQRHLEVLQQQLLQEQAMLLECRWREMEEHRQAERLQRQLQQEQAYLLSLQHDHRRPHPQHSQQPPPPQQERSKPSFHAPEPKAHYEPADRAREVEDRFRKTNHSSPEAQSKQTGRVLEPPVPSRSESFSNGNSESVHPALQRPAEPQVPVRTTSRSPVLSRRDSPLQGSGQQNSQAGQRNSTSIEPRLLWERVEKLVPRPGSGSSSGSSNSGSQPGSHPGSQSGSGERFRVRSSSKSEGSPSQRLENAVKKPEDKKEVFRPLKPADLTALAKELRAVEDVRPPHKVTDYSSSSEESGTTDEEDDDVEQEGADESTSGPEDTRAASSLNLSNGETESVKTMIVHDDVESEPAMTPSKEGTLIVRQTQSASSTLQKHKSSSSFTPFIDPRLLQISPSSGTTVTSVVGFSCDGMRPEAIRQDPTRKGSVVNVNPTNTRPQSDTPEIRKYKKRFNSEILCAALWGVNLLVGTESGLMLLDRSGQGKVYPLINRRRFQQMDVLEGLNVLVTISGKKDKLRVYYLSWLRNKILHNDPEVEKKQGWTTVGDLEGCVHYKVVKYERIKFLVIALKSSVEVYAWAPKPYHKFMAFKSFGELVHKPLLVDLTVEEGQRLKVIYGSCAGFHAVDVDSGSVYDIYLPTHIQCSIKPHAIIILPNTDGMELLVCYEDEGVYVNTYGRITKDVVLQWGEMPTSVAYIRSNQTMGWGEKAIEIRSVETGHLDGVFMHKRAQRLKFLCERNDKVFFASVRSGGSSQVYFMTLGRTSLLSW

For the compound `CCn1ncc2c1CCC(Nc1nc3c(-c4ccc(F)cc4C)cccn3n1)C2` (stereo not drawn) [Example 42, (1-Ethyl-4,5,6,7-tetrahydro-1H-indazol-5-yl)-[8-(4-fluoro-2-methyl-phenyl)-[1,2,4]triazolo[1,5-a]pyridine-2-yl]-amine], the IC50 in the test on Aβ42 production came to 70 nM. Moreover, the inhibition at 10 µM is < 40% on FLT4 (VEGFR3) (setting [1]); 31% on FLT4 (VEGFR3) (setting [2]); < 40% at MAP4K4 (HGK) (setting [3]); 37% at MAP4K4 (HGK) (setting [4]); < 40% on RET (setting [5]); 29% on RET (setting [6]).
Take `CCn1ncc2c1CCC(Nc1nc3c(-c4cccc(Cl)c4)cccn3n1)C2` (stereo not drawn) [Example 59, [8-(3-Chloro-phenyl)-[1,2,4]triazolo[1,5-a]pyridine-2-yl]-(1-ethyl-4,5,6,7-tetrahydro-1H-indazol-5-yl)-amine]: the IC50 in the test with Aβ42 production was found to be 40 nM. Also, the inhibition at 10 µM is < 40% on FLT4 (VEGFR3) (setting [1]); 39% on FLT4 (VEGFR3) (setting [2]); 40 to 80% at MAP4K4 (HGK) (setting [3]); 57% at MAP4K4 (HGK) (setting [4]); < 40% on RET (setting [5]); 29% at RET (setting [6]).
`CCn1ncc2c1CCC(Nc1nc3c(-c4ccccc4C)cccn3n1)C2` (stereo not drawn) [Example 56, (1-Ethyl-4,5,6,7-tetrahydro-1H-indazol-5-yl)-[8-(2-methyl-phenyl)-[1,2,4]triazolo[1,5-a]pyridine-2-yl]-amine]: in the test on Aβ42 production, the IC50 amounted to 160 nM. In addition, the inhibition at 10 µM on FLT4 (VEGFR3) (setting [2]) was 35%; at MAP4K4 (HGK) (setting [3]) it was 40 to 80%; on MAP4K4 (HGK) (setting [4]) it was 48%; at RET (setting [5]) it was < 40%; on RET (setting [6]), 27%.
In the test with Aβ42 production, `CCn1ncc2c1CCC(Nc1nc3c(-c4cccnc4)cccn3n1)C2` (stereo not drawn) [Example 63, (1-Ethyl-4,5,6,7-tetrahydro-1H-indazol-5-yl)-(8-pyridin-3-yl-[1,2,4]triazolo[1,5-a]pyridine-2-yl)-amine] displayed an IC50 of 350 nM. The inhibition at 10 µM at FLT4 (VEGFR3) (setting [1]) was < 40%; on FLT4 (VEGFR3) (setting [2]) it was 32%; on MAP4K4 (HGK) (setting [3]), 40 to 80%; at MAP4K4 (HGK) (setting [4]), 48%; on RET (setting [5]) it was < 40%; at RET (setting [6]) it was 20%.
In the test on Aβ42 production, `Cc1cc(F)ccc1-c1cccn2nc(NC3CCc4c(cnn4C(C)C)C3)nc12` (stereo not drawn) [Example 44, [8-(4-fluoro-2-methyl-phenyl)-[1,2,4]triazolo[1,5-a]pyridine-2-yl]-(1-isopropyl-4,5,6,7-tetrahydro-1H-indazol-5-yl)-amine] gave an IC50 of 430 nM. Also, the inhibition at 10 µM on FLT4 (VEGFR3) (setting [1]) is 40 to 80%; on FLT4 (VEGFR3) (setting [2]), 43%; on MAP4K4 (HGK) (setting [3]), < 40%; at MAP4K4 (HGK) (setting [4]) it was 37%; on RET (setting [5]) it was < 40%; at RET (setting [6]) it was 20%.
Compound `CCn1nnc2c1CCC(Nc1nc3c(-c4ccc(F)cc4C)cccn3n1)C2` (stereo not drawn) [Example 51, (1-Ethyl-4,5,6,7-tetrahydro-1H-benzotriazol-5-yl)-[8-(4-fluoro-2-methyl-phenyl)-[1,2,4]triazolo[1,5-a]pyridine-2-yl]-amine] had an IC50 with Aβ42 production of 2200 nM. Also, the inhibition at 10 µM is < 40% on FLT4 (VEGFR3) (setting [1]); 15% at FLT4 (VEGFR3) (setting [2]); < 40% on MAP4K4 (HGK) (setting [3]); -8% at MAP4K4 (HGK) (setting [4]); < 40% at RET (setting [5]); 2% on RET (setting [6]).
`CCn1ncc2c1CCC(Nc1nc3c(-c4cncc(OC)c4)cccn3n1)C2` (stereo not drawn) [Example 70, (1-Ethyl-4,5,6,7-tetrahydro-1H-indazol-5-yl)-[8-(5-methoxy-pyridin-3-yl)-[1,2,4]triazolo[1,5-a]pyridine-2-yl]-amine] yielded an IC50 with Aβ42 production of 200 nM. Also, the inhibition at 10 µM is < 40% at FLT4 (VEGFR3) (setting [1]); 28% at FLT4 (VEGFR3) (setting [2]); 40 to 80% at MAP4K4 (HGK) (setting [3]); 56% on MAP4K4 (HGK) (setting [4]); < 40% at RET (setting [5]); 32% at RET (setting [6]).
For the compound `CCn1ncc2c1CCC(Nc1nc3c(-c4ccc(OC)nc4)cccn3n1)C2` (stereo not drawn) [Example 71, (1-Ethyl-4,5,6,7-tetrahydro-1H-indazol-5-yl)-[8-(6-methoxy-pyridin-3-yl)-[1,2,4]triazolo[1,5-a]pyridine-2-yl]-amine], the IC50 in the test with Aβ42 production came to 90 nM. In addition, the inhibition at 10 µM at FLT4 (VEGFR3) (setting [1]) is 40 to 80%; on FLT4 (VEGFR3) (setting [2]) it was 62%; on MAP4K4 (HGK) (setting [3]) it was < 40%; at MAP4K4 (HGK) (setting [4]) it was 16%; at RET (setting [5]) it was < 40%; on RET (setting [6]), 30%.
As for `CCn1ncc2c1CC[C@@H](Nc1nc3c(-c4ccc(F)c(Cl)c4)cccn3n1)C2` [Example R-61, (R)-[8-(3-Chloro-4-fluoro-phenyl)-[1,2,4]triazolo[1,5-a]pyridine-2-yl]-(1-ethyl-4,5,6,7-tetrahydro-1H-indazol-5-yl)-amine], the IC50 in the test with Aβ42 production was determined as 9 nM. Moreover, the inhibition at 10 µM on FLT4 (VEGFR3) (setting [1]) was < 40%; at FLT4 (VEGFR3) (setting [2]), 21%; on MAP4K4 (HGK) (setting [3]), < 40%; at MAP4K4 (HGK) (setting [4]), 24%; at RET (setting [5]), < 40%; at RET (setting [6]), 20%.
As for `CCn1ncc2c1CCC(Nc1nc3c(-c4ccc(F)cc4)cccn3n1)C2` (stereo not drawn) [Example 55, (1-Ethyl-4,5,6,7-tetrahydro-1H-indazol-5-yl)-[8-(4-fluoro-phenyl)-[1,2,4]triazolo[1,5-a]pyridine-2-yl]-amine], the IC50 in the test with Aβ42 production worked out at 180 nM. Also, the inhibition at 10 µM on FLT4 (VEGFR3) (setting [1]) was 40 to 80%; at FLT4 (VEGFR3) (setting [2]), 42%; at MAP4K4 (HGK) (setting [3]), 40 to 80%; at MAP4K4 (HGK) (setting [4]), 51%; at RET (setting [5]) it was < 40%; at RET (setting [6]), 21%.
